In US6211168A, “Methods for preparation and use of 1α,24 (S)-dihydroxy vitamin D2” (Bone Care International, Inc, priority 1995, dated 2001):

Tests used:
Human keratinocytes = experiment: epidermal cell differentiation and proliferation testing; format: cell-based; settings: 0.05 to 5 μg/ml, versus ethanol control cultures
Protocol: Human keratinocytes are cultured according to known modifications of the system originally described by Rheinwald and Green (Cell, vol. 6, p. 331 (1975)). The 1α,24(S)-dihydroxy vitamin D2, dissolved in ethanol, is added to cells to yield a variety of concentrations between 0.05 and 5 μg/ml with the ethanol concentration not to exceed 0.5% v/v. Control cultures are supplemented with ethanol at a final concentration of 0.5% v/v.
Differentiation and proliferation of epidermal cells in culture is examined by:
1. quantitation of cornified envelopes;
2. quantitation of cell density of cells attached to disks;
3. monitoring transglutaminase activity; or
4. monitoring DNA synthesis by incorporation of ^3 H-thymidine.

HL-60 promyelocytes = experiment: HL-60 cell differentiation assay; format: cell-based; settings: dose-response; acid esterase, NBT reduction, thymidine incorporation
Protocol: A dose-response study is conducted with 1α,24(S)-(OH)2 D2 in the HL-60 cell differentiation assay as described by DeLuca and Ostrom (DeLuca, H. F. and Ostrem, V. K., Prog. Clin. Biol. Res., vol. 259, pp. 41-55 (1988)). In this study, 1α,25-(OH)2 D3 is used as a positive control and appropriate solvents are used as negative controls. The following variables are evaluated: nonspecific acid esterase activity, nitroblue tetrazolium (NBT) reduction, and thymidine incorporation.

[1] = test system: men and women with renal disease undergoing chronic hemodialysis; experiment: hypocalcemia and metabolic bone disease in chronic hemodialysis patients; format: in vivo, human; settings: greater than 3.0 μg/day, twelve months
Protocol: A twelve-month, double-blind, placebo-controlled clinical trial is conducted with thirty men and women with renal disease who are undergoing chronic hemodialysis. […] Efficacy is evaluated by pre- and post-treatment comparisons of the two patient groups with regard to (a) direct measurements of intestinal calcium absorption, (b) total body calcium retention, (c) radial and spinal bone mineral density, or (d) determinations of serum calcium. Safety is evaluated by regular monitoring of serum calcium.

[2] = test system: postmenopausal osteoporotic out-patients; experiment: preventive treatment of bone mass loss in postmenopausal osteoporotic women; format: in vivo, human; settings: at or above 1.0 μg/day, 24 to 36 months
Protocol: A clinical study is conducted with postmenopausal osteoporotic out-patientshaving ages between 55 and 75 years. The study involves up to 120 patients randomly divided into three treatment groups and continues for 24 to 36 months. Two of the treatment groups receive constant dosages of 1α,24(S)-dihydroxy vitamin D2 (u.i.d.; two different dose levels at or above 1.0 μg/day) and the other group receives a matching placebo. All patients maintain a normal intake of dietary calcium (500 to 800 mg/day) and refrain from using calcium supplements. Efficacy is evaluated by pre-and post-treatment comparisons of the patient groups with regard to (a) total body calcium retention, and (b) radial and spinal bone mineral density as determined by dual-photon absorptiometry (DPA) or dual-energy x-ray absorptiometry (DEXA). Safety is evaluated by comparisons of urinary hydroxyproline excretion, serum and urine calcium levels, creatinine clearance, blood urea nitrogen, and other routine determinations.

`C=C1/C(=C\C=C2/CCC[C@]3(C)[C@@H]([C@H](C)/C=C/[C@@](C)(O)C(C)C)CC[C@@H]23)C[C@@H](O)C[C@@H]1O` [1α,24(S)-(OH)2 D2, 1α,24(S)-dihydroxy vitamin D2] was tested, and the “DNA synthesis by incorporation of 3H-thymidine” value (Human keratinocytes) was “lower DNA synthesis”, the “cell density of cells attached to disks” value (Human keratinocytes) was “fewer attached cells” and the cornified envelopes (Human keratinocytes) was “more cornified envelopes”. For the same compound, the transglutaminase activity (Human keratinocytes) was “higher transglutaminase activity”, the “differentiation of HL-60 promyelocytes to monocytes” value (HL-60 promyelocytes) was “potent activity in promoting differentiation of HL-60 promyelocytes to monocytes” and the “radial and spinal bone densities relative to baseline” value [1] was “stable radial and spinal bone densities”. For the same compound, the “total body calcium relative to baseline” value [1] was “stable values for total body calcium”, the intestinal calcium absorption ([1]; double-isotope technique) was “significantly increases intestinal calcium absorption” and the “incidence of hypercalcemia, hypercalciuria or other metabolic disturbance” value [2] was “insignificant incidence of hypercalcemia or hypercalciuria, or any other metabolic disturbance”. The “total body calcium, radial and spinal bone densities relative to placebo” value [2] was “significantly higher total body calcium, and radial and spinal bone densities relative to patients treated with placebo”.
